The record followed here is patent EP0523675A1, “Inhibitory agent against HIV superinfection” (priority 1991, dated 1993).

Where no end group is shown, it is not given here.

This assay has as its system HTLV-IIIB virus (superinfection of L-2 cells). As to the kind of experiment: Inhibition of superinfection of L-2 cells with HTLV-IIIB, fluorescent antibody technique using V-17 (anti-p18) antibody. Format: cell-based, HIV (Human Immunodeficiency Virus). Particulars: peptide final concentration 1 mg/ml, mixed with HTLV-IIIB virus liquid M.O.I. = 3.2 for 30 min at room temperature, then inoculated into L-2 cells; checked every 4 days; Fig. 2.

For the sequence TKGPSKLNDRADSRRS [CD4 peptide (45-60)], the “inhibitory effect on superinfection” value was “not at all observed”.
